≈ marks a conversion by molar mass, not a printed value. Like-named read-outs stand apart in the source and are kept apart here.
Tested on: E. coli
Assay: MIC by broth microdilution
Assay type: cell-based, Escherichia coli
Conditions: for MIC: Escherichia coli, read-out: MIC
Procedure: MICs of amikacin and gentamicin were determined using the broth microdilution method in cation-adjusted Mueller-Hinton broth, as recommended by the Clinical Laboratory Standard Institute (CLSI) guidelines (8). Amikacin and gentamicin sulfate (Fluorochem, Dertbyshire, UK) were tested over a range of dilutions from 0.25 to 256 μg/ml. A final inoculum of 5.10^5 CFU/ml of each strain was distributed in the 96 wells tray (Sarstedt, Ntimbrecht, Germany). All experiments were repeated in triplicate and E. coli ATCC 25922 was used as quality control. According to the CLSI breakpoints (9), Enterobacteriaceae isolates with gentamicin MICs≤4 and amikacin MICs≤16 mg/L were categorized as susceptible, while those with gentamicin MICs≥16 and amikacin MICs≥64 mg/L were categorized as resistant.
MICs of amikacin and gentamicin were determined as described above in Example 1.

[1] = isolate 92/31, E. coli, AAC(3)-IV
[2] = isolate 390, E. coli, AAC(3)-IV
[3] = isolate 1054 (first entry), E. coli, AAC(6′)-I
[4] = isolate 1054 (second entry), E. coli, AAC(6′)-I
[5] = isolate 1488, E. coli, AAC(6′)-II
[6] = isolate 4000, E. coli, APH(3′)-I + AAC(3)-V
[7] = isolate 22089, E. coli, AAC(3)-I + AAC(3)-V
[8] = isolate 122971, E. coli, ANT(2″)
[9] = isolate R1436, E. coli, AG susceptible
[10] = isolate R1438, E. coli, AG susceptible

SMILES: NCC[C@H](O)C(=O)N[C@@H]1C[C@H](N)[C@@H](O[C@H]2O[C@H](CN)[C@@H](O)[C@H](O)[C@H]2O)[C@H](O)[C@H]1O[C@H]1O[C@H](CO)[C@@H](O)[C@H](N)[C@H]1O [Amikacin]
- MIC (ATCC25922, isolate FR136, E. coli ATCC 25922, AG susceptible): 2 µg/mL (≈ 3.42 µM)
- MIC (ATCC25922, strain R2298, E. coli ATCC 25922, susceptible): 2 µg/mL (≈ 3.42 µM)
- MIC (ATCC35218, isolate R2278, E. coli ATCC 35218, AG susceptible): 4 µg/mL (≈ 6.83 µM)
- MIC (ATCC35218, strain R2278, E. coli ATCC 35218, susceptible): 4 µg/mL (≈ 6.83 µM)
- MIC (isolate 62Carb, E. coli, rmtB): > 256 µg/mL
- MIC [1]: 4 µg/mL (≈ 6.83 µM)
- MIC (isolate 97, E. coli, AAC(3)-IV): 2 µg/mL (≈ 3.42 µM)
- MIC [2]: 16 µg/mL (≈ 27.3 µM)
- MIC [3]: 8 µg/mL (≈ 13.7 µM)
- MIC [4]: 16 µg/mL (≈ 27.3 µM)
- MIC [5]: 4 µg/mL (≈ 6.83 µM)
- MIC [6]: 4 µg/mL
- MIC [7]: 16 µg/mL
- MIC [8]: 4 µg/mL (≈ 6.83 µM)
- MIC (isolate E28, E. coli, rmtB): > 256 µg/mL
- MIC (isolate R107, E. coli, rmtB): > 256 µg/mL
- MIC (isolate R1012, E. coli, armA): > 256 µg/mL
- MIC [9]: 2 µg/mL (≈ 3.42 µM)
- MIC [10]: 2 µg/mL (≈ 3.42 µM)
- MIC (isolate R4100, E. coli TOP10, npmA): 128 µg/mL (≈ 219 µM)
- MIC (isolate RP4, E. coli, APH(3′)-Ib): 1 µg/mL (≈ 1.71 µM)
- MIC (isolate pFCT1163, E. coli, AAC(6′)-Ia): 128 µg/mL (≈ 219 µM)
- MIC (isolate pFCT4392, E. coli, AAC(3)-Ia): 1 µg/mL (≈ 1.71 µM)
- MIC (isolate pWP701, E. coli, AAC(3)-IV): 1 µg/mL (≈ 1.71 µM)
- MIC (strain 62Carb, E. coli, rmtB): > 512 µg/mL
- MIC (strain 92/31, E. coli, AAC(3)-IV): 4 µg/mL (≈ 6.83 µM)
- MIC (strain 97, E. coli, AAC(3)-IV): 2 µg/mL (≈ 3.42 µM)
- MIC (strain 390, E. coli, AAC(3)-IV): 16 µg/mL (≈ 27.3 µM)
- MIC (strain 1054a, E. coli, AAC(6′)-I): 8 µg/mL (≈ 13.7 µM)
- MIC (strain 1054b, E. coli, AAC(6′)-I): 16 µg/mL (≈ 27.3 µM)
- MIC (strain 1488, E. coli, AAC(6′)-II): 4 µg/mL (≈ 6.83 µM)
- MIC (strain 4000, E. coli, APH(3′)-I + AAC(3)-V): 4 µg/mL
- MIC (strain 22089, E. coli, AAC(3)-I + AAC(3)-V): 16 µg/mL
- MIC (strain 122971, E. coli, ANT(2″)): 4 µg/mL (≈ 6.83 µM)
- MIC (strain E28, E. coli, rmtB): > 512 µg/mL
- MIC (strain R107, E. coli, rmtB): > 512 µg/mL
- MIC (strain R1012, E. coli, armA): > 512 µg/mL
- MIC (strain R1436, E. coli, susceptible): 2 µg/mL (≈ 3.42 µM)
- MIC (strain R1438, E. coli, susceptible): 2 µg/mL (≈ 3.42 µM)
- MIC (strain R4100, E. coli, npmA): 258 µg/mL (≈ 441 µM)
- MIC (strain RP4, E. coli, APH(3′)-Ib): 1 µg/mL (≈ 1.71 µM)
- MIC (strain pFCT1163, E. coli, AAC(6′)-Ia): 128 µg/mL (≈ 219 µM)
- MIC (strain pFCT4392, E. coli, AAC(3)-Ia): 1 µg/mL (≈ 1.71 µM)
- MIC (strain pWP701, E. coli, AAC(3)-IV): 1 µg/mL (≈ 1.71 µM)
- Amikacin Phenotype (isolate 62Carb, E. coli, rmtB): R (amikacin MICs≥64 mg/L were categorized as resistant)
- Amikacin Phenotype [1]: S (amikacin MICs≤16 mg/L were categorized as susceptible)
- Amikacin Phenotype (isolate 97, E. coli, AAC(3)-IV): S (amikacin MICs≤16 mg/L were categorized as susceptible)
- Amikacin Phenotype [2]: S (amikacin MICs≤16 mg/L were categorized as susceptible)
- Amikacin Phenotype [3]: S (amikacin MICs≤16 mg/L were categorized as susceptible)
- Amikacin Phenotype [4]: S (amikacin MICs≤16 mg/L were categorized as susceptible)
- Amikacin Phenotype [5]: S (amikacin MICs≤16 mg/L were categorized as susceptible)
- Amikacin Phenotype [6]: S (amikacin MICs≤16 mg/L were categorized as susceptible)
- Amikacin Phenotype [7]: S (amikacin MICs≤16 mg/L were categorized as susceptible)
- Amikacin Phenotype [8]: S (amikacin MICs≤16 mg/L were categorized as susceptible)
- Amikacin Phenotype (isolate E28, E. coli, rmtB): R (amikacin MICs≥64 mg/L were categorized as resistant)
- Amikacin Phenotype (isolate FR136, E. coli ATCC 25922, AG susceptible): S (amikacin MICs≤16 mg/L were categorized as susceptible)
- Amikacin Phenotype (isolate R107, E. coli, rmtB): R (amikacin MICs≥64 mg/L were categorized as resistant)
- Amikacin Phenotype (isolate R262, E. coli, rmtC): R (amikacin MICs≥64 mg/L were categorized as resistant)
- Amikacin Phenotype (isolate R451, E. coli, rmtC): R (amikacin MICs≥64 mg/L were categorized as resistant)
- Amikacin Phenotype (isolate R989, E. coli, armA): R (amikacin MICs≥64 mg/L were categorized as resistant)
- Amikacin Phenotype (isolate R990, E. coli, rmtB): R (amikacin MICs≥64 mg/L were categorized as resistant)
- Amikacin Phenotype (isolate R1012, E. coli, armA): R (amikacin MICs≥64 mg/L were categorized as resistant)
- Amikacin Phenotype [9]: S (amikacin MICs≤16 mg/L were categorized as susceptible)
- Amikacin Phenotype [10]: S (amikacin MICs≤16 mg/L were categorized as susceptible)
- Amikacin Phenotype (isolate R2278, E. coli ATCC 35218, AG susceptible): S (amikacin MICs≤16 mg/L were categorized as susceptible)

— patent US20190249218A1, “Method, Medium and Kit for Detecting Multiple Aminoglycoside Resistance Including 16S rRNA Methylase Mediated Resistance in Gram-Negative Bacteria” (priority 2016, published 2019)
